Assays:
Assay in all cases: pIC50, kinobeads binding competition
NEK1 = target: T1, NEK1 (UniProt Q96PY6)
T1 sequence (whole entry): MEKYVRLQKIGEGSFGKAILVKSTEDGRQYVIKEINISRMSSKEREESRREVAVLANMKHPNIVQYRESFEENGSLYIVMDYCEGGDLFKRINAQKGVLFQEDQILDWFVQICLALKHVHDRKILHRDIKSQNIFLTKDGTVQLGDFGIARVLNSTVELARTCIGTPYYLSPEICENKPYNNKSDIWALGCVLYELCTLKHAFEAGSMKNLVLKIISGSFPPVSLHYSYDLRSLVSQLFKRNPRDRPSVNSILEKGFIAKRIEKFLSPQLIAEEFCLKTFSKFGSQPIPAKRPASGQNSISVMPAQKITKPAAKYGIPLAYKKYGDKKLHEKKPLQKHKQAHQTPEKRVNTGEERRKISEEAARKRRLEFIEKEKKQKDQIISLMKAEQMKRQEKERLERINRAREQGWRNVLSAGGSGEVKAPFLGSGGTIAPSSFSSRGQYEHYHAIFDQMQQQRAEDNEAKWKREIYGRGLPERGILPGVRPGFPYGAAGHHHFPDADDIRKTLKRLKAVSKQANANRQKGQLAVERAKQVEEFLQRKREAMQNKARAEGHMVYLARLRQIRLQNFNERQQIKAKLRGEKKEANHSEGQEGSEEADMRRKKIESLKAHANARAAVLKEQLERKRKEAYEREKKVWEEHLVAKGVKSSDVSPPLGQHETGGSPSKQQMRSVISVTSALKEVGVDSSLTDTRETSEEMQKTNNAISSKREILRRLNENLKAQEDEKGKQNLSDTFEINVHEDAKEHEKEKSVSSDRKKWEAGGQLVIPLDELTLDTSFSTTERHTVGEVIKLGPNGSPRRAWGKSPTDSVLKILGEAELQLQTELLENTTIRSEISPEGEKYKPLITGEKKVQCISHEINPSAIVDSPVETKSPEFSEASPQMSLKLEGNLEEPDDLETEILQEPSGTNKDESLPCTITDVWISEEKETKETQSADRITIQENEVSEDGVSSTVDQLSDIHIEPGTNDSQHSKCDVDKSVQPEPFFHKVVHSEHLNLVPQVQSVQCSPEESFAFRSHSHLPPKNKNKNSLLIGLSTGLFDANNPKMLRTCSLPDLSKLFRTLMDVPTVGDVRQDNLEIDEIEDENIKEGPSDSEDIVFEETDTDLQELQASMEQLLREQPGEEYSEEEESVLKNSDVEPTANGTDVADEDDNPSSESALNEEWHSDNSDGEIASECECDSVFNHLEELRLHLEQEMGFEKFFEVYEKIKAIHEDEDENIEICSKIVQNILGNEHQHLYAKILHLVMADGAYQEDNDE
Outline: (§1)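 pIC50 was obtained by fitting fold changes against vehicle to logistic dose-response curves with the R drc package, using biological duplicates. Kinobeads-bound proteins were digested and measured by TMT10 LC-MS/MS. Before this, either living Jurkat cells received nine compound concentrations (top 30 μM, 1:4 steps) for 60 min at 37 °C prior to lysis, or Jurkat lysate or a 1:1:1:1 HEK293/K-562/HepG2/placenta lysate mix received nine concentrations (top 30 μM, 1:5 steps) for 60 min at 4 °C.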

UniProt O96017 = target: UniProt O96017
Chain of UniProt O96017 (O96017 whole entry): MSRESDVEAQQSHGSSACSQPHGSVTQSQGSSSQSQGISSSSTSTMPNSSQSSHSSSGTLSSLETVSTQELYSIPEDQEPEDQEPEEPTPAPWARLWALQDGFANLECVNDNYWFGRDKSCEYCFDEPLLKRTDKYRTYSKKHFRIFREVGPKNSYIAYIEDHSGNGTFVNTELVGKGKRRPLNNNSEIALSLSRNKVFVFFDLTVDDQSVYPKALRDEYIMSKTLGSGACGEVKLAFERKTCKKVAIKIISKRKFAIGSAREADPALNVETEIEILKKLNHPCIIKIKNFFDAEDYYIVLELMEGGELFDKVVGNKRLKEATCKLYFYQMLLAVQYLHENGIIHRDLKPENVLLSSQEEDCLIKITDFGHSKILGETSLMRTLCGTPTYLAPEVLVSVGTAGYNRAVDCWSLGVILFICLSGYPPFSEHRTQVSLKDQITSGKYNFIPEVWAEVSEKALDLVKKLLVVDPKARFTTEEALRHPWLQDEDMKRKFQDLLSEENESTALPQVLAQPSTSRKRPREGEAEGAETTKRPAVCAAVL
Outline: as §1

PRKCB = PRKCB (UniProt P05771)
Chain of PRKCB (P05771 whole entry, looked up): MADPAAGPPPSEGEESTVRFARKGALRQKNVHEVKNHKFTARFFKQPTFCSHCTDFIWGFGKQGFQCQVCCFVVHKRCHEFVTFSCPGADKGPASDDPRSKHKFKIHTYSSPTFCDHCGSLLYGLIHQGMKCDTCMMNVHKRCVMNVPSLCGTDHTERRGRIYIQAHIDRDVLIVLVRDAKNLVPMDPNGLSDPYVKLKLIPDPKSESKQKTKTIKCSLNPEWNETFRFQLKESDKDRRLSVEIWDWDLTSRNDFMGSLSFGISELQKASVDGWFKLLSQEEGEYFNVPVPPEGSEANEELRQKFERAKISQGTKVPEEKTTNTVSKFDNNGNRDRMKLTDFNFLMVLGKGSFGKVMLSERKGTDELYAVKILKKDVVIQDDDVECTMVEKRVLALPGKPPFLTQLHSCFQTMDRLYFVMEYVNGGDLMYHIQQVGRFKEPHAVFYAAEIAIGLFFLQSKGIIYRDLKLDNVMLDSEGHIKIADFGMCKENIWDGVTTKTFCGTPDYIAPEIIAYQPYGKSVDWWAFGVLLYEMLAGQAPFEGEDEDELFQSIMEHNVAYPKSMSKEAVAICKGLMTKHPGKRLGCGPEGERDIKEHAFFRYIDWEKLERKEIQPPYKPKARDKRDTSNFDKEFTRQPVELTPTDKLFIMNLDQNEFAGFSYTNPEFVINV
Outline: as §1

UniProt Q9NYV4 = target: UniProt Q9NYV4
Outline: as §1

UniProt Q5VT25 = target: UniProt Q5VT25
Chain of UniProt Q5VT25 (Q5VT25 whole entry): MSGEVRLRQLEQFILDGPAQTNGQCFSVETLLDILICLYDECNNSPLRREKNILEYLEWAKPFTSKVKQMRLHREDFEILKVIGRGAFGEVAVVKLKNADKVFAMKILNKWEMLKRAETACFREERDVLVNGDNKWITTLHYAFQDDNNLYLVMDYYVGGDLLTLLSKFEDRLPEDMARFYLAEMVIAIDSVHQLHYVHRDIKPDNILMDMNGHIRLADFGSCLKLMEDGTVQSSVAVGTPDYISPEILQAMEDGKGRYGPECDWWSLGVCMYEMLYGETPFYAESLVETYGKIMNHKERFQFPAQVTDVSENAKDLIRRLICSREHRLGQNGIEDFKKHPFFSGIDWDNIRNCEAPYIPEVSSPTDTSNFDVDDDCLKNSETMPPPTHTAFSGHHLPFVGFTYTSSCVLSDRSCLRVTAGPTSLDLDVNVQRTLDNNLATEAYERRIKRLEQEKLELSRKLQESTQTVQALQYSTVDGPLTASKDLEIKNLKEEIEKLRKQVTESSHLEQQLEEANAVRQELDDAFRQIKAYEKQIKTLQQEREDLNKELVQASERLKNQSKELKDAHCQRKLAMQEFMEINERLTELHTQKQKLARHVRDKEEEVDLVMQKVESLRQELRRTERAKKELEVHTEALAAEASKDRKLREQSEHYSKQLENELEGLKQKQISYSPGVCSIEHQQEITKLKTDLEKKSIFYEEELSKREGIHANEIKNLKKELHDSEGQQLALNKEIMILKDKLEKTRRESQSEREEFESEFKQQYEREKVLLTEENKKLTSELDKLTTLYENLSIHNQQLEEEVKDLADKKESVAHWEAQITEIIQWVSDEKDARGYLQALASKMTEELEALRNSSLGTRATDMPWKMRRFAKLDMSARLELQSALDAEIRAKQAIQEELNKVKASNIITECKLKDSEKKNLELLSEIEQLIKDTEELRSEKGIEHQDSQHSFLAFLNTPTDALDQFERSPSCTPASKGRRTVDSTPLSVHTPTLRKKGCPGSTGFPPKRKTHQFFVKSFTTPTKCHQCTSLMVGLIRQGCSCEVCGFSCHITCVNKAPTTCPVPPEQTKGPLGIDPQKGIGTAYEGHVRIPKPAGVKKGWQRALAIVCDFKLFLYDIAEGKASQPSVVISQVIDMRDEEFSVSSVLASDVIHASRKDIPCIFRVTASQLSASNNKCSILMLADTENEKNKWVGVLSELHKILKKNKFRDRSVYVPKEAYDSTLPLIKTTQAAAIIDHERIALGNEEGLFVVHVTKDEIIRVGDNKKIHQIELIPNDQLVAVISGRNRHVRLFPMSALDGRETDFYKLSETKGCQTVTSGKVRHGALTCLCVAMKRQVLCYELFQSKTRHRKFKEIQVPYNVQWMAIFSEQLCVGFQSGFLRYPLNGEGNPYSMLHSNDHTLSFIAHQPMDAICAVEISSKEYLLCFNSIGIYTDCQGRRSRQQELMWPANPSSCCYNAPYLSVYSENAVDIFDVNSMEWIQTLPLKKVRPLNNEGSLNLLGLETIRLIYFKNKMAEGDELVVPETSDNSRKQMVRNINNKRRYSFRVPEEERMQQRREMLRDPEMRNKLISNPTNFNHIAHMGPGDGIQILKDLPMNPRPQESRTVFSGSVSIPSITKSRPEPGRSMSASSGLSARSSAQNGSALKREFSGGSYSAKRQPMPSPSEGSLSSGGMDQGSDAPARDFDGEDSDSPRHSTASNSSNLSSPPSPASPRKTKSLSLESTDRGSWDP
Outline: as §1

TESK1 = TESK1 (UniProt Q15569)
Chain of TESK1 (Q15569 whole entry, looked up): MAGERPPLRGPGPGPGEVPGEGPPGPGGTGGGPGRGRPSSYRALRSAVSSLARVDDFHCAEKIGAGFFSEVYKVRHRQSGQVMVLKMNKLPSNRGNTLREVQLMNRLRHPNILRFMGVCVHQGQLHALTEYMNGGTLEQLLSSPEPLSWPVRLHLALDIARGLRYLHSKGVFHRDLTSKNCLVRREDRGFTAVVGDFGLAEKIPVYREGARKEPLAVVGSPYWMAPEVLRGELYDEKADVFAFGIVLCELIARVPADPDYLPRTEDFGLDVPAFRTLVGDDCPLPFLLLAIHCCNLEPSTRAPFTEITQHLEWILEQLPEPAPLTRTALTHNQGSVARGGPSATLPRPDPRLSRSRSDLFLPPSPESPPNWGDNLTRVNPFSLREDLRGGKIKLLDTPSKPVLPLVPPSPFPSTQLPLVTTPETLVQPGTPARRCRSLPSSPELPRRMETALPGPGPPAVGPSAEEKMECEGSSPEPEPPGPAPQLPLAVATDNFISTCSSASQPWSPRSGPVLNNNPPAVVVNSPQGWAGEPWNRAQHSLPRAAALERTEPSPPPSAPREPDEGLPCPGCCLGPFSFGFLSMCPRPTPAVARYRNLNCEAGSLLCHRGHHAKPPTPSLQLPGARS
Outline: as §1

UniProt Q15208 = target: UniProt Q15208
Chain of UniProt Q15208 (Q15208 whole entry, looked up): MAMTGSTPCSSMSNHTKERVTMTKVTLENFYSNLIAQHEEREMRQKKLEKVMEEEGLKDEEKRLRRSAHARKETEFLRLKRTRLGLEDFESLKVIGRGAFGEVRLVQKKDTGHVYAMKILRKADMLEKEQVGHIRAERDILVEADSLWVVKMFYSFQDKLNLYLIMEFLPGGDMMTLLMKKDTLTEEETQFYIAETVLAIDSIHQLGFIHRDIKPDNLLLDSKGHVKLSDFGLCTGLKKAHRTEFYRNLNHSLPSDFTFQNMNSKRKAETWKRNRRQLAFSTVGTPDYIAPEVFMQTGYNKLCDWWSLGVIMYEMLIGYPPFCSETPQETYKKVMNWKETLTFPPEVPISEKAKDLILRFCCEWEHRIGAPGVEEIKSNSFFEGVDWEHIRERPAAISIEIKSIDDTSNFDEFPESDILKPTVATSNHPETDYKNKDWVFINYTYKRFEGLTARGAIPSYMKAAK
Outline: as §1

CDK2 = CDK2 (UniProt P24941)
Outline: as §1

PCTK3 = PCTK3 (UniProt Q07002)
Chain of PCTK3 (Q07002 whole entry): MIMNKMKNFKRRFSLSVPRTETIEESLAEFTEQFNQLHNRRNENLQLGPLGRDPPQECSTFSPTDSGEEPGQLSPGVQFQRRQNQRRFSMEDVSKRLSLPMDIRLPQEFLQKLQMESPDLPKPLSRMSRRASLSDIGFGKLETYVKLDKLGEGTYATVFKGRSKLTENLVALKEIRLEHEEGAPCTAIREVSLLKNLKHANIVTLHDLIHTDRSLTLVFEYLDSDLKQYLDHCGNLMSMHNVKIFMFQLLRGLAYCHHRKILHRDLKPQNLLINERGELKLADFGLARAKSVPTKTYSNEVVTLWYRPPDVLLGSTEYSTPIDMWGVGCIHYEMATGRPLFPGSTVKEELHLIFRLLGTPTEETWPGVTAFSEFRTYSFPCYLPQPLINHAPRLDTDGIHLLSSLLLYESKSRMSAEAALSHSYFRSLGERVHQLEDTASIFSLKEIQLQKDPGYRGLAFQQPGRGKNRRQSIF
Outline: as §1

UniProt O15111 = target: T2, UniProt O15111
T2 sequence (whole entry): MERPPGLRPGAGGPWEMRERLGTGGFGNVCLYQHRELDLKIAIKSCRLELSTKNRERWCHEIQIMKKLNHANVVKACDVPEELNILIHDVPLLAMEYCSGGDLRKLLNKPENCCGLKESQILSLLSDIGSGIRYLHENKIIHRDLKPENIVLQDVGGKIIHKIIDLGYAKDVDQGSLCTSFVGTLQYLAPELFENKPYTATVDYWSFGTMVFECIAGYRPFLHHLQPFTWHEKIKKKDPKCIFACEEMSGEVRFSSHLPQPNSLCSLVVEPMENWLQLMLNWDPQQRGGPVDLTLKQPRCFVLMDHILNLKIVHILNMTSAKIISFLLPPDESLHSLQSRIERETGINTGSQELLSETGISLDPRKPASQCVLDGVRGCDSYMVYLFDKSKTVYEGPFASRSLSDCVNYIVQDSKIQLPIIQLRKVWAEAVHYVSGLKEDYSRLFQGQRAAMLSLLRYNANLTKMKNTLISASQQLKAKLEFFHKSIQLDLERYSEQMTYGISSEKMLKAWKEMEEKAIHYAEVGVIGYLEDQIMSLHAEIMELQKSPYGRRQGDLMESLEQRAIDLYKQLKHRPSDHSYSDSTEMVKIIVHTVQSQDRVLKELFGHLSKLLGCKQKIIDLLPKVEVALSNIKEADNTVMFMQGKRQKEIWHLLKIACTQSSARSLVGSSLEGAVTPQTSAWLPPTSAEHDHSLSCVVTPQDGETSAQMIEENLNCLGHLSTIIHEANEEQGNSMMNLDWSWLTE
Outline: as §1

| Compound | pIC50 (NEK1; cell material: Lysate mix) | pIC50 (UniProt O96017; cell material: Lysate mix) | pIC50 (PRKCB; cell material: Lysate mix) | pIC50 (UniProt Q9NYV4; cell material: Lysate mix) | pIC50 (UniProt Q5VT25; cell material: Lysate mix) | pIC50 (TESK1; cell material: Lysate mix) | pIC50 (UniProt Q15208; cell material: Lysate mix) | pIC50 (CDK2; cell material: Lysate mix) | pIC50 (PCTK3; cell material: Lysate mix) | pIC50 (UniProt O15111; cell material: Lysate mix) | pIC50 (UniProt Q9NYV4; cell material: Jurkat lysate) | pIC50 (TESK1; cell material: Jurkat cells) | pIC50 (NEK1; cell material: Jurkat cells) | pIC50 (NEK1; cell material: Jurkat lysate) | pIC50 (UniProt O96017; cell material: Jurkat cells) | pIC50 (UniProt O96017; cell material: Jurkat lysate) | pIC50 (PRKCB; cell material: Jurkat cells) | pIC50 (PRKCB; cell material: Jurkat lysate) | pIC50 (UniProt Q9NYV4; cell material: Jurkat cells) | pIC50 (UniProt Q5VT25; cell material: Jurkat cells) | pIC50 (UniProt Q5VT25; cell material: Jurkat lysate) | pIC50 (TESK1; cell material: Jurkat lysate) | pIC50 (UniProt Q15208; cell material: Jurkat cells) | pIC50 (UniProt Q15208; cell material: Jurkat lysate) | pIC50 (CDK2; cell material: Jurkat cells) | pIC50 (CDK2; cell material: Jurkat lysate) | pIC50 (PCTK3; cell material: Jurkat cells) | pIC50 (PCTK3; cell material: Jurkat lysate) | pIC50 (UniProt O15111; cell material: Jurkat cells) | pIC50 (UniProt O15111; cell material: Jurkat lysate) |
| --- | --- | --- | --- | --- | --- | --- | --- | --- | --- | --- | --- | --- | --- | --- | --- | --- | --- | --- | --- | --- | --- | --- | --- | --- | --- | --- | --- | --- | --- | --- |
| C#CCNC(=O)c1cc(Nc2cc(C)[nH]n2)nc(N2CCN(Cc3ccc(S(=O)(=O)F)cc3)CC2)n1 | < 4.52 | 4.98 | < 4.52 | < 4.52 | < 4.52 | < 4.52 | 5 | 6.2 | < 4.52 | < 4.52 |  |  |  |  |  |  |  |  |  |  |  |  |  |  |  |  |  |  |  |  |
| C#CCNC(=O)c1cc(Nc2cc(C3CC3)[nH]n2)nc(N2CCN(Cc3ccc(S(=O)(=O)F)cc3)CC2)n1 |  | 4.92 | < 4.52 | 5.34 | < 4.52 | < 4.52 | 6.2 | 6.7 | 5.2 | < 4.52 |  |  | 5.94 | < 4.52 | 5.76 | 4.88 | 5.46 | < 4.52 | 6.33 | 5.28 | < 4.52 | < 4.52 | 6.44 | 5.44 | 6.8 | 6.16 | 6.2 | < 4.52 | < 4.52 | < 4.52 |
| O=C(NCCNC(=O)c1cc(Nc2cc(C3CC3)[nH]n2)nc(N2CCN(Cc3ccc(S(=O)(=O)F)cc3)CC2)n1)OC1CC/C=C/CCC1 (stereo unspecified) | < 4.52 | 4.71 | < 4.52 | < 4.52 | < 4.52 | < 4.52 | 5.11 | 5.19 | < 4.52 | < 4.52 | < 4.52 | < 4.52 | 5.43 | < 4.52 | 5.78 | 4.92 |  | < 4.52 | 5.85 | < 4.52 | < 4.52 | < 4.52 | 6.33 | 4.8 | 6.45 | 5.06 | 5.7 | < 4.52 | < 4.52 | < 4.52 |
| Cc1cc(Nc2cc(C(=O)NCCNC(=O)OC3CC/C=C/CCC3)nc(N3CCN(Cc4ccc(S(=O)(=O)F)cc4)CC3)n2)n[nH]1 (stereo unspecified) | < 4.52 | 5.23 | < 4.52 | < 4.52 | < 4.52 | < 4.52 | < 4.52 | 4.74 | < 4.52 | < 4.52 |  |  |  |  |  |  |  |  |  |  |  |  |  |  |  |  |  |  |  |  |

Second part, led by results:

| pIC50 (NEK1; cell material: Lysate mix) | pIC50 (UniProt O96017; cell material: Lysate mix) | pIC50 (PRKCB; cell material: Lysate mix) | pIC50 (UniProt Q9NYV4; cell material: Lysate mix) | pIC50 (UniProt Q5VT25; cell material: Lysate mix) | pIC50 (TESK1; cell material: Lysate mix) | pIC50 (UniProt Q15208; cell material: Lysate mix) | pIC50 (CDK2; cell material: Lysate mix) | pIC50 (PCTK3; cell material: Lysate mix) | pIC50 (UniProt O15111; cell material: Lysate mix) | pIC50 (UniProt Q9NYV4; cell material: Jurkat lysate) | pIC50 (TESK1; cell material: Jurkat cells) | Compound | pIC50 (NEK1; cell material: Jurkat cells) | pIC50 (NEK1; cell material: Jurkat lysate) | pIC50 (UniProt O96017; cell material: Jurkat cells) | pIC50 (UniProt O96017; cell material: Jurkat lysate) | pIC50 (PRKCB; cell material: Jurkat cells) | pIC50 (PRKCB; cell material: Jurkat lysate) | pIC50 (UniProt Q9NYV4; cell material: Jurkat cells) | pIC50 (UniProt Q5VT25; cell material: Jurkat cells) | pIC50 (UniProt Q5VT25; cell material: Jurkat lysate) | pIC50 (TESK1; cell material: Jurkat lysate) | pIC50 (UniProt Q15208; cell material: Jurkat cells) | pIC50 (UniProt Q15208; cell material: Jurkat lysate) | pIC50 (CDK2; cell material: Jurkat cells) | pIC50 (CDK2; cell material: Jurkat lysate) | pIC50 (PCTK3; cell material: Jurkat cells) | pIC50 (PCTK3; cell material: Jurkat lysate) | pIC50 (UniProt O15111; cell material: Jurkat cells) | pIC50 (UniProt O15111; cell material: Jurkat lysate) |
| --- | --- | --- | --- | --- | --- | --- | --- | --- | --- | --- | --- | --- | --- | --- | --- | --- | --- | --- | --- | --- | --- | --- | --- | --- | --- | --- | --- | --- | --- | --- |
| 4.86 | 4.75 | < 4.52 | 4.9 | < 4.52 | < 4.52 | 5.83 | 6.29 | 5.36 | < 4.52 |  |  | CCNC(=O)c1cc(Nc2cc(C3CC3)[nH]n2)nc(N2CCN(Cc3ccc(S(=O)(=O)F)cc3)CC2)n1 |  |  |  |  |  |  |  |  |  |  |  |  |  |  |  |  |  |  |
| < 4.52 | 4.92 | < 4.52 | < 4.52 | < 4.52 | < 4.52 | 4.8 | 6.47 | < 4.52 | < 4.52 |  |  | CCNC(=O)c1cc(Nc2cc(C)[nH]n2)nc(N2CCN(Cc3ccc(S(=O)(=O)F)cc3)CC2)n1 |  |  |  |  |  |  |  |  |  |  |  |  |  |  |  |  |  |  |
